Source: US20260151383A1, “HETEROCYCLIC COMPOUNDS AND USES THEREOF” (KayoThera Inc., priority 2022, published 2026)

Assays:
Type in all cases: biochemical
Details in all cases: recombinant enzyme, 20° C., activity level classes
[1] = target: T1, mALDH1a3 (Mus musculus, UniProt Q9JHW9); assay: Aldh1a3 enzyme inhibition assay (resorufin fluorescence), mouse enzyme
T1 construct: made in house; host or cells: E. coli BL21-DE3
T1 sequence (Q9JHW9 1-512): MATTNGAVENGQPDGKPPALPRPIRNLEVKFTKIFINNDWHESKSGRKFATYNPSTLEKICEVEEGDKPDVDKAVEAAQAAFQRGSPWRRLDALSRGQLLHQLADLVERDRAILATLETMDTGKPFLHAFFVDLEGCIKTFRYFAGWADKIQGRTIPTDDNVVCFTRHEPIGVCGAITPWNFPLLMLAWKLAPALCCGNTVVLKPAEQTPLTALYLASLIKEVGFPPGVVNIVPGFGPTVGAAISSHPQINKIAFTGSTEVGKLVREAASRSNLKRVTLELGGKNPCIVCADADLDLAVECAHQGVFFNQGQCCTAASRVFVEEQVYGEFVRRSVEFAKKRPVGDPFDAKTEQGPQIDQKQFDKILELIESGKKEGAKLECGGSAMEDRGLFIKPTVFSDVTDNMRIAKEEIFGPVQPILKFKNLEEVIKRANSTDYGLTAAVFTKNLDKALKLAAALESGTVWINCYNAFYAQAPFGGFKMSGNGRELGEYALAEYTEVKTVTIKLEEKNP
Text: Recombinant enzyme and inhibitor added immediately before assay. Reaction rate measured by resorufin fluorescence.

[2] = target: T2, mALDH1a2 (Mus musculus, UniProt Q62148); assay: Aldh1a2 enzyme inhibition assay (resorufin fluorescence), mouse enzyme
T2 construct: made in house; host or cells: E. coli BL21-DE3
T2 sequence (Q62148 1-518): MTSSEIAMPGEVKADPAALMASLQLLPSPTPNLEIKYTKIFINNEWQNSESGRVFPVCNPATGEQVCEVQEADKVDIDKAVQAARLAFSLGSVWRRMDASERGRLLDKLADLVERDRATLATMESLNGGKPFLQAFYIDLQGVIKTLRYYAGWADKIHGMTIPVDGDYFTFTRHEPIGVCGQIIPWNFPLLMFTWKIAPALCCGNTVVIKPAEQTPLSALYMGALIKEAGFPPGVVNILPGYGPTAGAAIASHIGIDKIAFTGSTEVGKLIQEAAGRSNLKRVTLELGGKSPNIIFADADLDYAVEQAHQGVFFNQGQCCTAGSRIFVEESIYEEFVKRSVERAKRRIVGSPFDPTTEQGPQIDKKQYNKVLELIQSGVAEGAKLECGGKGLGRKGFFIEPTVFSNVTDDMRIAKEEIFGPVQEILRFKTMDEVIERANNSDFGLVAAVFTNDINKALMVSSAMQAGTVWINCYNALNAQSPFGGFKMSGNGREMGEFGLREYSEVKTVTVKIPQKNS
Text: (§1) Recombinant enzyme and inhibitor added immediately before assay. Reaction rate measured by resorufln fluorescence.

[3] = target: T3, hALDH1a2 (Homo sapiens, UniProt O94788); assay: Aldh1a2 enzyme inhibition assay (resorufin fluorescence), human enzyme
T3 construct: made in house; host or cells: E. coli BL21-DE3
T3 sequence (O94788 1-518): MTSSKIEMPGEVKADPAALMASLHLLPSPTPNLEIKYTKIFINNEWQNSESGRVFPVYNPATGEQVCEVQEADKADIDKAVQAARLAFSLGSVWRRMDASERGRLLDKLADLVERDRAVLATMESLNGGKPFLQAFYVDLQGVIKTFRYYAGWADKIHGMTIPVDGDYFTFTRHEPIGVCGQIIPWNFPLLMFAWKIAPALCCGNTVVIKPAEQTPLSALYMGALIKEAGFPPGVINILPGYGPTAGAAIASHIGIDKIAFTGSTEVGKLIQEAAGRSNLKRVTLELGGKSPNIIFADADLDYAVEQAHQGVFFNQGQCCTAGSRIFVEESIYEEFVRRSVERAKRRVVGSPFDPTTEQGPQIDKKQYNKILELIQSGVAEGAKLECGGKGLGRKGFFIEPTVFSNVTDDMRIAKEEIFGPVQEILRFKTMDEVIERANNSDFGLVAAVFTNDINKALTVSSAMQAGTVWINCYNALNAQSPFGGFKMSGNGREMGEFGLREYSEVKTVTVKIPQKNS
Text: as §1

[4] = target: T4, hALDH1a3 (Homo sapiens, UniProt P47895); assay: Aldh1a3 enzyme inhibition assay (resorufin fluorescence), human enzyme
T4 construct: made in house; host or cells: E. coli BL21-DE3
T4 sequence (P47895 1-512): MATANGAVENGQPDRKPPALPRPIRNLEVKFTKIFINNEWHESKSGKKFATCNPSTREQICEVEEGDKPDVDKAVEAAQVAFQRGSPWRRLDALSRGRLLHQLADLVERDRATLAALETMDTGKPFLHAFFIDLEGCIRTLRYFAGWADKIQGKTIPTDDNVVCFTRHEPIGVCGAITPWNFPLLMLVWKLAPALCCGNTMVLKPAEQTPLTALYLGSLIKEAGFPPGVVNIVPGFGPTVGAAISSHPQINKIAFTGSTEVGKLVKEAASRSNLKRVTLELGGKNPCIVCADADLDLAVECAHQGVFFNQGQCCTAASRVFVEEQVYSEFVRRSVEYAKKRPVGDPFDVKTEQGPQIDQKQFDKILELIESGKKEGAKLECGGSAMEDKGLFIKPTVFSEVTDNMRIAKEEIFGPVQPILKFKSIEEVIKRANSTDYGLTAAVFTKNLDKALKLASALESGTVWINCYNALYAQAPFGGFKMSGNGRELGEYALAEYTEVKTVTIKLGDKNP

SMILES	IC50 [1]	IC50 [2]	IC50 [3]	IC50 [4]	mAldh1a3 IC50 [1]	hAldh1a3 IC50 [4]
CCc1scnc1C(=O)Nc1cc(C)c2c(c1)C1CC1C(=O)N2 (stereo not shown) [Compound 39]	250 to 1000 nM	250 to 1000 nM	250 to 1000 nM	250 to 1000 nM	–	–
CCc1ncoc1C(=O)Nc1cc(C)c2c(c1)CCC(=O)N2 [Compound 57]	100 to 250 nM	1000 to 5000 nM	1000 to 5000 nM	250 to 1000 nM	–	–
CCc1ncsc1C(=O)Nc1cc(Cl)c2c(c1)C1CC1C(=O)N2 (stereo not shown) [Compound 38]	< 100 nM	100 to 250 nM	100 to 250 nM	100 to 250 nM	–	–
CCc1ncsc1C(=O)Nc1cc(Cl)c2c(c1)CCC(=O)N2 [Compound 36]	< 100 nM	250 to 1000 nM	250 to 1000 nM	100 to 250 nM	–	–
Cc1cc(NC(=O)c2ccncc2-c2cccc(F)c2)cc2c1NC(=O)CC2 [Compound 3, 3-(3-fluorophenyl)-N-(8-methyl-2-oxo-1,2,3,4-tetrahydroquinolin-6-yl)isonicotinamide]	–	250 to 1000 nM	250 to 1000 nM	1000 to 5000 nM	No activity	–
Cc1cccc(-c2cnccc2C(=O)Nc2cc(C)c3c(c2)CCC(=O)N3)c1 [Compound 11, N-(8-methyl-2-oxo-1,2,3,4-tetrahydroquinolin-6-yl)-3-(m-tolyl)isonicotinamide]	–	1000 to 5000 nM	1000 to 5000 nM	–	No activity	No activity
CCc1ncsc1C(=O)Nc1cc(C)c2c(c1)C1CC1C(=O)N2 (stereo not shown) [Compound 34]	< 100 nM	< 100 nM	< 100 nM	< 100 nM	–	–
O=C(Nc1cc(F)c2c(c1)C1CC1C(=O)N2)c1ocnc1CC(F)(F)F (stereo not shown) [Compound 61]	250 to 1000 nM	250 to 1000 nM	250 to 1000 nM	100 to 250 nM	–	–
CCc1sncc1C(=O)Nc1cc(C)c2c(c1)CCC(=O)N2 [Compound 50]	< 100 nM	250 to 1000 nM	250 to 1000 nM	250 to 1000 nM	–	–
CCc1csnc1C(=O)Nc1cc(C)c2c(c1)C1CC1C(=O)N2 (stereo not shown) [Compound 46]	< 100 nM	100 to 250 nM	100 to 250 nM	100 to 250 nM	–	–
Cc1cc(NC(=O)c2ccncc2-c2ccc(O)cc2)cc2c1NC(=O)CC2 [Compound 19]	–	1000 to 5000 nM	1000 to 5000 nM	–	No activity	No activity
CCCc1ncsc1C(=O)Nc1cc(C)c2c(c1)CCC(=O)N2 [Compound 66]	100 to 250 nM	250 to 1000 nM	250 to 1000 nM	100 to 250 nM	–	–
O=C1CCc2cc(NC(=O)c3ccncc3-c3ccccc3F)ccc2N1 [Compound 25]	–	1000 to 5000 nM	1000 to 5000 nM	> 5000 nM	No activity	–
Cc1ccc(-c2cnccc2C(=O)Nc2cc(C)c3c(c2)CCC(=O)N3)cc1 [Compound 13]	–	> 5000 nM	> 5000 nM	–	No activity	No activity
Cc1c(Cl)c(NC(=O)c2ncsc2CC(F)(F)F)cc2c1NC(=O)CC2 [Compound 73]	< 100 nM	< 100 nM	100 to 250 nM	< 100 nM	–	–
Cc1cc(NC(=O)c2ocnc2CC(F)(F)F)cc2c1NC(=O)CC2 [Compound 56]	100 to 250 nM	1000 to 5000 nM	1000 to 5000 nM	250 to 1000 nM	–	–
